Laboratory results from patent US20020054880A1, “Anti-inflammatory, tolerogenic and immunoinhibiting properties of carbohydrate binding-peptides” (priority 1992, published 2002).
Entries after “also recorded” stand apart in the source; their conditions may differ.

How the values were obtained:
[1] = target: T1, PT-biotin binding to fetuin (Bos taurus, UniProt P12763); experiment: PT-biotin binding to fetuin, binding inhibition assay; set-up: species or system Bordetella pertussis; conditions: for Percent Changes in Binding Activity PT/fetuin: peptide mg/mL: S2PL 1.2, ACS2P1 1.0, S2(14-2.3) 1.0, S2P2 1.1, S2P3 0.51, S2P4 0.98, S2P6 0.85, S3P1 3.2, S3P2 3.1, S3P3 4.5, S3P4 3.3, S3P5 0.48, S3P9a 1.7, SPYGRC 4.4, S2(WGA) 1.0, WGA (62-73) 1.0, + enhancement, − inhibition
T1 construct: purchased Sigma Chemical Company (fetuin); Connaught Center for Biotechnology Research (PT)
T1 sequence (P12763 19-359): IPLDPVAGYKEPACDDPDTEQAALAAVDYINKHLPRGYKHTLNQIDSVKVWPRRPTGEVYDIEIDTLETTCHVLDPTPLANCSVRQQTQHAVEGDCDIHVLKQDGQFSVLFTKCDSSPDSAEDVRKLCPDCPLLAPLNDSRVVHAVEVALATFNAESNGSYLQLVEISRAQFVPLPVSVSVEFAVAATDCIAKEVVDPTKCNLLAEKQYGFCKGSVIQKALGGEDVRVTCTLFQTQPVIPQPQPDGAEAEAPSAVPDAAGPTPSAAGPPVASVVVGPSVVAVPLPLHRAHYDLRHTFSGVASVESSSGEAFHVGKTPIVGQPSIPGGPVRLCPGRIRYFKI
Procedure: (§1) Peptides ranging in concentration from 0.5 to 4.5 mg/ml in PBS (40 μl) were added to each well and PT-biotin (10 μl containing 10 ng in PBS) was then added to the microtiter wells. […] Horseradish peroxidase-conjugated avidin (100 μl, 1/3000 dilution in PBST to a concentration of 0.3 μg/ml) was then added to the wells, and the plates were incubated at ambient temperature for 1 hour. […] Color development was recorded at 405 nm using a Titertek Multiskan MC plate reader. […] Binding assays for each peptide were done in duplicate. Binding inhibition experiments utilizing SNA-, WGA-, and MAL-biotin were performed as described above using 10 ng of each biotinylated lectin in PBS.
(§2) Binding assays for each inhibitor concentration were done at least in duplicate, and the average value varied less than 15%.

[2] = target: T2, MAL-biotin binding to fetuin (Bos taurus, UniProt P12763); experiment: MAL-biotin binding to fetuin, binding inhibition assay; set-up: species or system Maackia amurensis; conditions: for Percent Changes in Binding Activity MAL/fetuin: peptide mg/mL: S2PL 1.2, ACS2P1 1.0, S2(14-2.3) 1.0, S2P2 1.1, S2P3 0.51, S2P4 0.98, S2P6 0.85, S3P1 3.2, S3P2 3.1, S3P3 4.5, S3P4 3.3, S3P5 0.48, S3P9a 1.7, SPYGRC 4.4, S2(WGA) 1.0, WGA (62-73) 1.0, + enhancement, − inhibition
T2 construct: purchased Sigma Chemical Company (fetuin); Boehringer Mannheim (MAL-biotin)
T2 sequence (P12763 19-359): T1 sequence (P12763 19-359)
Procedure: as §1, §2

[3] = target: T3, SNA-biotin binding to fetuin (Bos taurus, UniProt P12763); experiment: biochemical; conditions: peptide mg/mL: S2PL 1.2, ACS2P1 1.0, S2(14-2.3) 1.0, S2P2 1.1, S2P3 0.51, S2P4 0.98, S2P6 0.85, S3P1 3.2, S3P2 3.1, S3P3 4.5, S3P4 3.3, S3P5 0.48, S3P9a 1.7, SPYGRC 4.4, S2(WGA) 1.0, WGA (62-73) 1.0; + enhancement, − inhibition
T3 sequence (P12763 19-359): T1 sequence (P12763 19-359)
Procedure: (§3) The solution was removed by aspiration and replaced with 100 μl of 1% BSA in PBS containing 0.05% Tween 20 (PBST). After incubation for 2-4 hours at room temperature, the microtiter wells were washed four times with 300 μl of PBST. Peptides ranging in concentration from 0.5 to 4.5 mg/ml in PBS (40 μl) were added to each well and PT-biotin (10 μl containing 10 ng in PBS) was then added to the microtiter wells. After incubating for 1 hour, the binding reaction was stopped by aspirating the solutions and the plate was washed with PBST (300 μl). Horseradish peroxidase-conjugated avidin (100 μl, 1/3000 dilution in PBST to a concentration of 0.3 μg/ml) was then added to the wells, and the plates were incubated at ambient temperature for 1 hour. After washing the wells as described above, the substrate solution [1 mM ABTS in 5 mM citrate buffer, pH 4.2, containing 0.1% hydrogen peroxide, v/v) was added and the plates were incubated for 30 minutes. Color development was recorded at 405 nm using a Titertek Multiskan MC plate reader. Maximum binding was determined in the absence of peptide, and background binding was measured in wells coated with BSA only. Binding assays for each peptide were done in duplicate. Binding inhibition experiments utilizing SNA-, WGA-, and MAL-biotin were performed as described above using 10 ng of each biotinylated lectin in PBS.

[4] = target: T4, WGA-biotin binding to fetuin (Bos taurus, UniProt P12763); experiment: biochemical; conditions: for Percent Changes in Binding Activity WGA/fetuin: peptide mg/mL: S2PL 1.2, ACS2P1 1.0, S2(14-2.3) 1.0, S2P2 1.1, S2P3 0.51, S2P4 0.98, S2P6 0.85, S3P1 3.2, S3P2 3.1, S3P3 4.5, S3P4 3.3, S3P5 0.48, SPYGRC 4.4, S2(WGA) 1.0, WGA (62-73) 1.0, + enhancement, − inhibition
T4 sequence (P12763 19-359): T1 sequence (P12763 19-359)
Procedure: as §3

[5] = target: T5, PT-biotin binding to asialofetuin (Bos taurus, UniProt P12763); experiment: PT-biotin binding to asialofetuin, binding inhibition assay; set-up: species or system Bordetella pertussis; conditions: for Percent Changes in Binding Activity PT/asialo-fetuin: peptide mg/mL: S2PL 1.2, ACS2P1 1.0, S2P2 1.1, S2P3 0.51, S2P4 0.98, S2P6 0.85, S3P1 3.2, S3P2 3.1, S3P3 4.5, S3P4 3.3, S3P5 0.48, SPYGRC 4.4, + enhancement, − inhibition; for IC50 PT-b (asialofetuin): wells coated with 3 μg/ml asialofetuin, 2-fold dilutions of peptide in PBS
T5 construct: made in house
T5 sequence (P12763 19-359): T1 sequence (P12763 19-359)
Procedure: as §1, §2

[6] = target: T6, ACS2P1-biotin binding to fetuin (Bos taurus, UniProt P12763); experiment: biochemical; conditions: peptide μM: ACS2P1 4.1, S2P2 42.5, SPYGRC 5520, S2P3 22.4, S2P4 6.0, S2P6 319, S3P1 1142, S3P2 934, S3P3 16.1, S3P4 6.4, S3P5 22.5; ACS2P1-biotin 0.1 μg; − inhibition, + enhancement
T6 construct: purchased Sigma Chemical Company
T6 sequence (P12763 19-359): T1 sequence (P12763 19-359)

[7] = target: T7, ACS2P1-biotin binding to asialofetuin (Bos taurus, UniProt P12763); experiment: Screening of S2 and S3 peptides for inhibition of ACS2P1-biotin binding to asialofetuin; conditions: peptide μM: ACS2P1 4.1, S2P2 42.5, SPYGRC 5520, S2P3 22.4, S2P4 6.0, S2P6 319, S3P1 1142, S3P2 934, S3P3 16.1, S3P4 6.4, S3P5 22.5; ACS2P1-biotin 0.1 μg; − inhibition, + enhancement
T7 construct: made in house
T7 sequence (P12763 19-359): T1 sequence (P12763 19-359)

| Molecule | IC50 [1] [µM] | effect on PT-biotin binding to fetuin, in words [1] | Percent Changes in Binding Activity PT/fetuin [1] | IC50 [2] [µM] | effect on MAL-biotin binding to fetuin, in words [2] | Percent Changes in Binding Activity MAL/fetuin [2] | Percent Changes in Binding Activity SNA/fetuin [3] | IC50 [4] [mM] | Percent Changes in Binding Activity WGA/fetuin [4] | Percent Changes in Binding Activity PT/asialo-fetuin [5] | Percent Change in Binding Activity Fetuin [6] | Percent Change in Binding Activity Asialofetuin [7] | effect on PT-biotin binding to asialofetuin, in words [5] | IC50 PT-b (asialofetuin) [5] | enhancement of PT-biotin binding to fetuin relative to control experiments in the absence of peptide ([1]; initial peptide screening) [fold] |
| --- | --- | --- | --- | --- | --- | --- | --- | --- | --- | --- | --- | --- | --- | --- | --- |
| CC[C@H](C)[C@H](NC(=O)[C@H](CS)NC(=O)[C@H](Cc1ccccc1)NC(=O)[C@@H](NC(=O)[C@@H](NC(=O)[C@H](CCCCN)NC(=O)[C@H](CC(C)C)NC(=O)[C@H](CC(=O)O)NC(=O)[C@H](Cc1ccccc1)NC(=O)[C@H](C)NC(=O)CN)[C@@H](C)O)[C@@H](C)O)C(=O)N[C@@H](CCSC)C(=O)N[C@H](C(=O)N[C@H](C(=O)N[C@@H](CCCNC(=N)N)C(=O)N[C@@H](CC(N)=O)C(=O)N[C@H](C(=O)NCC(=O)N[C@@H](CCC(N)=O)C(=O)N1CCC[C@H]1C(=O)N[C@@H](C)C(=O)O)[C@@H](C)O)[C@@H](C)O)[C@@H](C)O [Peptide S2P3] | 190 ± 90 | inhibit binding to fetuin of all the biotinylated lectins | −21 ± 0% | 860 ± 20 | inhibit binding to fetuin of all the biotinylated lectins; also recorded: very active at inhibiting | −18 ± 2% | −15 ± 4% | 0.14 ± 0.03 | −56 ± 8% | −15(1) Percent | +70 ± 11% | +15 ± 11% |  |  |  |
| CC[C@H](C)[C@H](NC(=O)[C@@H](NC(=O)[C@@H]1CCCN1C(=O)[C@H](CCC(N)=O)NC(=O)CNC(=O)[C@H](CO)NC(=O)[C@H](CCCNC(=N)N)NC(=O)[C@@H](NC(=O)[C@@H](N)Cc1ccccc1)C(C)C)C(C)C)C(=O)NCC(=O)N[C@@H](C)C(=O)N[C@@H](CS)C(=O)N[C@H](C(=O)N[C@@H](CO)C(=O)N1CCC[C@H]1C(=O)N[C@@H](Cc1ccc(O)cc1)C(=O)N[C@@H](CC(=O)O)C(=O)NCC(=O)N[C@@H](CCCCN)C(=O)N[C@@H](Cc1ccc(O)cc1)C(=O)N[C@@H](Cc1c[nH]c2ccccc12)C(=O)N[C@@H](CO)C(=O)N[C@@H](CCSC)C(=O)N[C@@H](Cc1ccc(O)cc1)C(=O)N[C@@H](CO)C(=O)N[C@@H](CCCNC(=N)N)C(=O)N[C@@H](CC(C)C)C(=O)N[C@@H](CCCNC(=N)N)C(=O)N[C@@H](CCCCN)C(=O)N[C@@H](CCSC)C(=O)N[C@@H](CC(C)C)C(=O)N[C@@H](Cc1ccc(O)cc1)C(=O)O)[C@@H](C)O [Peptide S2P6] | 220 ± 60 |  | −28 ± 6% |  |  | +18 ± 16% | +2 ± 2% |  | +57 ± 0% | −18(1) Percent | +49 ± 5% | +18 ± 16% |  |  |  |
| AGFIYRETFCITTIYKTGQPAADHYYSKVTA [Peptide S3P4] |  |  | +12 ± 2% |  |  | +7 ± 1% | +1(1) Percent |  | +13 ± 1% | +75 ± 50% | +55 ± 26% | +26 ± 2% |  |  |  |
| Ac-PQEQITQHGSPYGRC-NH2 [ACS2P1] |  |  | +89 ± 3% |  |  | +16 ± 9% |  |  |  | +190 ± 23% |  | +101 ± 2% |  |  |  |
| CASPYEGRYRDMYDALRRLLY [Peptide S3P5] |  |  | +14 ± 6% |  |  | +3 ± 6% | 0(1) Percent |  | +35 ± 8% | −26 ± 10% | −19 ± 4% | −17 ± 8% | reduce binding of PT to asialofetuin only; also recorded: inhibit PT-biotin's interaction with asialofetuin in a concentration-dependent manner | above the solubility limits of the peptide in PBS |  |
| CITTIYKTGQPAADHYYSKVTA [Peptide S3P3] |  |  | +19 ± 67% |  |  | +13 ± 15% | +3 ± 0% |  | +6 ± 3% | −28 ± 7% | −13 ± 16% | −10 ± 11% | reduce binding of PT to asialofetuin only; also recorded: inhibit PT-biotin's interaction with asialofetuin in a concentration-dependent manner | above the solubility limits of the peptide in PBS |  |
| H-SQYGYCGFGAEY-OH [WGA (62-73)] | 1500 |  | −32 ± 5% |  |  | −1 ± 4% | −3 ± 2% | 3.4 | −9 ± 1% |  |  |  |  |  |  |
| PQEQITQHGSPYGRC [Peptide S2P1] |  | enhancement of binding of PT to fetuin | +85 ± 4% |  |  | +8 ± 4% | −5 ± 1% |  | −18 ± 2% | +113(1) Percent |  |  |  |  | ~2 |
| PQEQITQHGSQYGYC [S2 (WGA)] |  |  | +79 ± 15% |  |  | +22 ± 3% | 0 ± 1% |  | −4 ± 3% |  |  |  |  |  |  |
| TQHGSPYGRC [S2 (14-23)] |  |  | +68 ± 9% |  |  | +32 ± 1% | +1 ± 2% |  | +7 ± 1% |  |  |  |  |  |  |
| YDGKYWSMYSRLRKMLY [Peptide S2P4] |  |  | +14 ± 22% |  |  | +2(1) Percent | +3(1) Percent |  | +15 ± 1% | −3(1) Percent | −8 ± 16% | +2 ± 4% |  |  |  |
